Blank lines part the entries; values can stand above or below the compound they belong to.
How the values were obtained:
[1] = target: Telomerase reverse transcriptase (Homo sapiens, UniProt O14746); test: Inhibition of telomerase
[2] = Growth inhibition of human HBC4 cells; assay type: functional, cell-based
LOX IMVI = test: Growth inhibition of human LOXIMVI cells; assay type: functional, cell-based
DMS-114 = test: Growth inhibition of human DMS114 cells; assay type: functional, cell-based
HCT-15 = test: Growth inhibition of human HCT15 cells; assay type: functional, cell-based
HT-29 = test: Growth inhibition of human HT-29 cells; assay type: functional, cell-based
SNB-78 = test: Growth inhibition of human SNB78 cells; assay type: functional, cell-based
HCC 2998 = test: Growth inhibition of human HCC2998 cells; assay type: functional, cell-based
MKN-74 = test: Growth inhibition of human MKN74 cells; assay type: functional, cell-based
MDA-MB-231 = test: Growth inhibition of human MDA-MB-231 cells; assay type: functional, cell-based
HCT-116 = test: Growth inhibition of human HCT116 cells; assay type: functional, cell-based
DU-145 = test: Growth inhibition of human DU145 cells; assay type: functional, cell-based
OVCAR-8 = test: Growth inhibition of human OVCAR8 cells; assay type: functional, cell-based
[3] = Growth inhibition of human BSY1 cells; assay type: functional, cell-based; details: BSY-1
St-4 = test: Growth inhibition of human St-4 cells; assay type: functional, cell-based
[4] = Growth inhibition of human NCI-H483 cells; assay type: functional, cell-based
SF-539 = test: Growth inhibition of human SF539 cells; assay type: functional, cell-based
OVCAR-5 = test: Growth inhibition of human OVCAR5 cells; assay type: functional, cell-based
NCI-H522 = test: Growth inhibition of human NCI-H522 cells; assay type: functional, cell-based
PC-3 = test: Growth inhibition of human PC3 cells; assay type: functional, cell-based
A549 = test: Growth inhibition of human A549 cells; assay type: functional, cell-based
OVCAR-4 = test: Growth inhibition of human OVCAR4 cells; assay type: functional, cell-based
MKN-28 = test: Growth inhibition of human MKN28 cells; assay type: functional, cell-based
U-251 = test: Growth inhibition of human U251 cells; assay type: functional, cell-based
MKN-7 = test: Growth inhibition of human MKN7 cells; assay type: functional, cell-based
SK-OV-3 = test: Growth inhibition of human SKOV3 cells; assay type: functional, cell-based
[5] = Growth inhibition of human RXF631L cells; assay type: functional; details: RXF 631
DMS-273 = test: Growth inhibition of human DMS273 cells; assay type: functional, cell-based
NCI-H23 = test: Growth inhibition of human NCI-H23 cells; assay type: functional, cell-based
SNB-75 = test: Growth inhibition of human SNB75 cells; assay type: functional, cell-based
MKN-45 = test: Growth inhibition of human MKN45 cells; assay type: functional, cell-based
ACHN = test: Growth inhibition of human ACHN cells; assay type: functional, cell-based
MCF7 = test: Growth inhibition of human MCF7 cells; assay type: functional, cell-based
[6] = Growth inhibition of human MKN1 cells; assay type: functional, cell-based; details: MKN-1
[7] = Growth inhibition of human HBC5 cells; assay type: functional, cell-based
KM12 = test: Growth inhibition of human KM12 cells; assay type: functional, cell-based
SF-268 = test: Growth inhibition of human SF268 cells; assay type: functional, cell-based
NCI-H226 = test: Growth inhibition of human NCI-H226 cells; assay type: functional, cell-based
OVCAR-3 = test: Growth inhibition of human OVCAR3 cells; assay type: functional, cell-based
SF-295 = test: Growth inhibition of human SF295 cells; assay type: functional, cell-based

Chain of Telomerase reverse transcriptase (O14746 whole entry): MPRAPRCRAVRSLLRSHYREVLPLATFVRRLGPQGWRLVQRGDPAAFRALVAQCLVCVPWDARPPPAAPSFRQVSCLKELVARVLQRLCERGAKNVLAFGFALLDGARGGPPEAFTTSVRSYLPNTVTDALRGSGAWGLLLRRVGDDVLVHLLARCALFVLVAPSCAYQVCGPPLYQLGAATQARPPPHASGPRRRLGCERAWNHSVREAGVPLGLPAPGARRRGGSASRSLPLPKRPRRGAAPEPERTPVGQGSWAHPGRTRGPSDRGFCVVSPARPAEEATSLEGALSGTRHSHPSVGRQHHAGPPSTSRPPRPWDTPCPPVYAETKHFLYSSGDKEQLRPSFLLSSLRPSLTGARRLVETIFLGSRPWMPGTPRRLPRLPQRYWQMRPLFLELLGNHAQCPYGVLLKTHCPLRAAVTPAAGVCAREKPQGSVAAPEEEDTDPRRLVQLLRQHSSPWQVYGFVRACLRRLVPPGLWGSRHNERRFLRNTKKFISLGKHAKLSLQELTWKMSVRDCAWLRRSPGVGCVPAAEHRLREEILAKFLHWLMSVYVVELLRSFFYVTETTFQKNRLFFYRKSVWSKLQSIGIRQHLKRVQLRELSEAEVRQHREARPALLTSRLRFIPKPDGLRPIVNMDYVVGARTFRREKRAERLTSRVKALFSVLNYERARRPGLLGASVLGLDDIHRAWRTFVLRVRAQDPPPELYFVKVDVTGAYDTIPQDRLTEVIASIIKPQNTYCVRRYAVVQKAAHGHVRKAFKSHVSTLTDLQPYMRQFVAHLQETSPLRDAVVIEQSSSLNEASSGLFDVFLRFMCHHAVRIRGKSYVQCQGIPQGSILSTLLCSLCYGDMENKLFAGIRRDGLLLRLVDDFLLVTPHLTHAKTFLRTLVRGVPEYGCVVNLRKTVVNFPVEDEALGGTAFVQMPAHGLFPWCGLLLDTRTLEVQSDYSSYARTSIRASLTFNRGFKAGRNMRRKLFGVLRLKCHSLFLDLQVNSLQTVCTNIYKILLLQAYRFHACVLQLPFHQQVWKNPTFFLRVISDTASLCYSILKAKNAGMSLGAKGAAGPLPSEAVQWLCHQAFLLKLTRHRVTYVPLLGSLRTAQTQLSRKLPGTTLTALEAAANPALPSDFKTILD

- IC50 [1]: 37000 nM
SMILES: COc1ccc2cc3[n+](cc2c1OC)CCc1cc2c(cc1-3)OCO2 [BERBERINE]

- GI50 (HCT-15): 9.33 nM
- GI50 (HT-29): 17.8 nM
- GI50 (HCC 2998): 8.91 nM
- GI50 (MKN-74): 38 nM
- GI50 (MDA-MB-231): 8.13 nM
- GI50 (HCT-116): 24.6 nM
- GI50 (DU-145): 6.92 nM
- GI50 (OVCAR-8): 14.4 nM
- GI50 (OVCAR-5): 26.9 nM
- GI50 (NCI-H522): 3.55 nM
- GI50 (PC-3): 2.19 nM
- GI50 (A549): 8.51 nM
- GI50 (OVCAR-4): 2.63 nM
- GI50 (MKN-28): 85.1 nM
- GI50 (U-251): 21.9 nM
- GI50 (MKN-7): 20.9 nM
- GI50 (SK-OV-3): 3.89 nM
- GI50 (NCI-H23): 22.9 nM
- GI50 (MKN-45): 4.57 nM
- GI50 (ACHN): 11.2 nM
- GI50 (MCF7): 6.92 nM
- GI50 (NCI-H226): 3.63 nM
- GI50 (OVCAR-3): 6.76 nM
SMILES: Cn1c(=O)n(-c2ccc(C(C)(C)C#N)cc2)c2c3cc(-c4cnc5ccccc5c4)ccc3ncc21 [DACTOLISIB]
- GI50 [2]: 2.46 nM
- GI50 (LOX IMVI): 2.19 nM
- GI50 (DMS-114): 4.07 nM
- GI50 (SNB-78): 2.24 nM
- GI50 [3]: 3.31 nM
- GI50 (St-4): 33.9 nM
- GI50 [4]: 7.76 nM
- GI50 (SF-539): 2.57 nM
- GI50 [5]: 6.17 nM
- GI50 (DMS-273): 15.8 nM
- GI50 (SNB-75): 2.63 nM
- GI50 [6]: 3.89 nM
- GI50 [7]: 13.5 nM
- GI50 (KM12): 28.8 nM
- GI50 (SF-268): 12 nM
- GI50 (SF-295): 4.9 nM

- GI50 (HCT-15): 759 nM
- GI50 (HT-29): 501 nM
- GI50 (HCC 2998): 513 nM
- GI50 (MKN-74): 955 nM
- GI50 (MDA-MB-231): 3470 nM
- GI50 (HCT-116): 1350 nM
- GI50 (DU-145): 1410 nM
- GI50 (OVCAR-8): 1860 nM
- GI50 (OVCAR-5): 550 nM
- GI50 (NCI-H522): 263 nM
- GI50 (PC-3): 219 nM
- GI50 (A549): 708 nM
- GI50 (OVCAR-4): 1740 nM
- GI50 (MKN-28): 3020 nM
- GI50 (U-251): 3160 nM
- GI50 (MKN-7): 316 nM
- GI50 (SK-OV-3): 302 nM
- GI50 (NCI-H23): 1860 nM
- GI50 (MKN-45): 282 nM
- GI50 (ACHN): 851 nM
- GI50 (MCF7): 46.8 nM
- GI50 (NCI-H226): 617 nM
- GI50 (OVCAR-3): 195 nM
SMILES: CS(=O)(=O)N1CCN(Cc2cc3nc(-c4cccc5[nH]ncc45)nc(N4CCOCC4)c3s2)CC1 [PICTILISIB]
- GI50 [2]: 933 nM
- GI50 (LOX IMVI): 513 nM
- GI50 (DMS-114): 1200 nM
- GI50 (SNB-78): 302 nM
- GI50 [3]: 126 nM
- GI50 (St-4): 2750 nM
- GI50 [4]: 275 nM
- GI50 (SF-539): 316 nM
- GI50 [5]: 132 nM
- GI50 (DMS-273): 372 nM
- GI50 (SNB-75): 79.4 nM
- GI50 [6]: 83.2 nM
- GI50 [7]: 251 nM
- GI50 (KM12): 1740 nM
- GI50 (SF-268): 4070 nM
- GI50 (SF-295): 427 nM

- GI50 (HCT-15): 525 nM
- GI50 (HT-29): 646 nM
- GI50 (HCC 2998): 851 nM
- GI50 (MKN-74): 1020 nM
- GI50 (MDA-MB-231): 813 nM
- GI50 (HCT-116): 1380 nM
- GI50 (DU-145): 724 nM
- GI50 (OVCAR-8): 1260 nM
- GI50 (OVCAR-5): 1200 nM
- GI50 (NCI-H522): 263 nM
- GI50 (PC-3): 145 nM
- GI50 (A549): 676 nM
- GI50 (OVCAR-4): 1620 nM
- GI50 (MKN-28): 1950 nM
- GI50 (U-251): 1820 nM
- GI50 (MKN-7): 575 nM
- GI50 (SK-OV-3): 398 nM
- GI50 (NCI-H23): 1050 nM
- GI50 (MKN-45): 245 nM
- GI50 (ACHN): 603 nM
- GI50 (MCF7): 182 nM
- GI50 (NCI-H226): 407 nM
- GI50 (OVCAR-3): 389 nM
SMILES: FC(F)c1nc2ccccc2n1-c1nc(N2CCOCC2)nc(N2CCOCC2)n1 [ZSTK-474]
- GI50 [2]: 912 nM
- GI50 (LOX IMVI): 288 nM
- GI50 (DMS-114): 479 nM
- GI50 (SNB-78): 355 nM
- GI50 [3]: 275 nM
- GI50 (St-4): 1910 nM
- GI50 [4]: 372 nM
- GI50 (SF-539): 479 nM
- GI50 [5]: 316 nM
- GI50 (DMS-273): 339 nM
- GI50 (SNB-75): 155 nM
- GI50 [6]: 245 nM
- GI50 [7]: 170 nM
- GI50 (KM12): 2240 nM
- GI50 (SF-268): 1480 nM
- GI50 (SF-295): 347 nM

The next lines start with the compound.

SMILES: CCn1c(=O)/c(=C2\Sc3ccccc3N2C)s/c1=C\c1scc(C)[n+]1CC
- IC50 [1]: 2000 nM

SMILES: Cn1cc(NC(=O)CC[S+](C)C)cc1-c1nc2cc(C(=O)Nc3ccc(N(CCCl)CCCl)cc3)ccc2[nH]1
- IC50 [2]: 710 nM
- IC50 (LOX IMVI): 710 nM
- IC50 (DMS-114): 710 nM
- IC50 (HCT-15): 710 nM
- IC50 (HT-29): 710 nM
- IC50 (SNB-78): 710 nM
- IC50 (HCC 2998): 710 nM
- IC50 (MKN-74): 710 nM
- IC50 (MDA-MB-231): 710 nM
- IC50 (HCT-116): 710 nM
- IC50 (DU-145): 710 nM
- IC50 (OVCAR-8): 710 nM
- IC50 [3]: 710 nM
- IC50 (St-4): 710 nM
- IC50 [4]: 710 nM
- IC50 (SF-539): 710 nM
- IC50 (OVCAR-5): 710 nM
- IC50 (NCI-H522): 710 nM
- IC50 (PC-3): 710 nM
- IC50 (A549): 710 nM
- IC50 (OVCAR-4): 710 nM
- IC50 (MKN-28): 710 nM
- IC50 (U-251): 710 nM
- IC50 (MKN-7): 710 nM
- IC50 (SK-OV-3): 710 nM
- IC50 [5]: 710 nM
- IC50 (DMS-273): 710 nM
- IC50 (NCI-H23): 710 nM
- IC50 (SNB-75): 710 nM
- IC50 (MKN-45): 710 nM
- IC50 (ACHN): 710 nM
- IC50 (MCF7): 710 nM
- IC50 [6]: 710 nM
- IC50 [7]: 710 nM
- IC50 (KM12): 710 nM
- IC50 (SF-268): 710 nM
- IC50 (NCI-H226): 710 nM
- IC50 (OVCAR-3): 710 nM
- IC50 (SF-295): 710 nM

SMILES: CCn1c(=O)/c(=C2\Sc3ccccc3N2C)s/c1=C\c1cccc[n+]1CC
- IC50 [1]: 5000 nM

— ChEMBL document CHEMBL1955734, “JFCR39, a panel of 39 human cancer cell lines, and its application in the discovery and development of anticancer drugs” (Bioorg Med Chem, 2012)
